The experiment has as its system P. falciparum K1. Kind of experiment: Plasmodium falciparum in vitro assay ([3H] hypoxanthine incorporation). Format: cell-based. The following applies: Plasmodium falciparum; erythrocytic stages, strain K1 resistant to chloroquine and pyrimethamine, human red cells; read-out: IC50 (nM) on K1. On the procedure: In vitro antimalarial activity: Plasmodium falciparum in vitro assay In vitro activity against erythrocytic stages of P. falciparum is determined using a [^3H] hypoxanthine incorporation assay. One strain resistant to chloroquine and pyrimethamine (P. falciparum K1) is used in the assays, and all test compounds are compared for activity with the standard drugs chloroquine (sigma C6628) and artemisinin (sigma-36, 159-3). Compounds are diluted in DMSO to 1 mM and added to parasite cultures incubated in RPMI 1640 medium without hypoxanthine, supplemented with HEPES (5.94 g/L), NaHCO3 (2.1 g/L), neomycin (100 U/mL), Albumax (5 g/L) and washed human red cells at 2.5% hematocrit (0.3% parasitaemia). Seven serial doubling dilutions of each drug are prepared in 96-well microtitre plates and incubated in a humidifying atmosphere at 37° C.; 4% CO2, 3% O2, 93% N2.
After 48 h, 50 μl of [^3H] hypoxanthine (0.5 μCi) is added to each well of a plate. The plates are incubated for a further 24 h under the same conditions. The plates are then harvested with a Betaplate cell harvester (Wallac) and washed with distilled water. The dried filters are inserted into a plastic foil with 10 mL of scintillation fluid, and counted in a Betaplate liquid scintillation counter. IC50 values are calculated from sigmoidal inhibition curves using Microsoft Excel.

As to `COc1ccc(C=CC(=O)N(Cc2ccc(-c3ncccn3)cc2)[C@@H](Cc2ccccc2)C(=O)N2CCc3ccccc3C2)cn1` [Example 93, (S)—N-[1-Benzyl-2-(3,4-dihydro-1H-isoquinolin-2-yl)-2-oxo-ethyl]-3-(6-methoxy-pyridin-3-yl)-N-(4-pyrimidin-2-yl-benzyl)-acrylamide], the IC50 (commonly the concentration needed to halve the response being measured) was 19 nM.

(Values after patent US20110281869A1, “TETRAHYDROISOQUINOLINES AS ANTIMALARIAL AGENTS” (priority 2008, published 2011).)
